ChEMBL document CHEMBL1124936, “Synthesis and antifolate properties of 9-alkyl-10-deazaminopterins” (J Med Chem, 1990)

What was measured:
L1210 = experiment: Concentration inhibiting L1210 cell growth in culture; format: functional, cell-based; settings: Mus musculus
Dihydrofolate reductase [1] = target: T1, Dihydrofolate reductase (Homo sapiens, UniProt P00374); experiment: Inhibitory activity towards dihydrofolate reductase derived from human manca leukemia cells
T1 sequence (P00374 whole entry): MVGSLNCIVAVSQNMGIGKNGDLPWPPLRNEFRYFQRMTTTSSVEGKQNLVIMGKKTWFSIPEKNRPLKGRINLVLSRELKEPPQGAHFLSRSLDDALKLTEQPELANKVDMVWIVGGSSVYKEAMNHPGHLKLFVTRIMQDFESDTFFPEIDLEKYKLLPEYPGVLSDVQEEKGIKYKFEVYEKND

Thymidylate synthase = target: T2, Thymidylate synthase (Lactobacillus casei, UniProt P00469); experiment: Concentration inhibiting thymidylate synthase enzyme of Lactobacillus casei; set-up: species or system Lacticaseibacillus casei
T2 sequence (P00469 whole entry): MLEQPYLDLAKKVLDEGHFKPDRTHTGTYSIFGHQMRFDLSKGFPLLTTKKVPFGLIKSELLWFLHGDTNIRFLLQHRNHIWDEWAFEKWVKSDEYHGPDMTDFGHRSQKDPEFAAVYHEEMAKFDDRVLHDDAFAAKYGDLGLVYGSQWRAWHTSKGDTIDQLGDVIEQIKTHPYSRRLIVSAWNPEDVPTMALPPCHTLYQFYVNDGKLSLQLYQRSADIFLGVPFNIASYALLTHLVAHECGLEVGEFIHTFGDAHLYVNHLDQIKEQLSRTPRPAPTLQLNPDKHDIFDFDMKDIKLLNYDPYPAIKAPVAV

Dihydrofolate reductase [2] = target: T3, Dihydrofolate reductase (Mus musculus, UniProt P00375); experiment: Concentration inhibiting dihydrofolate reductase derived from L1210 cells; format: cell-based
T3 sequence (P00375 whole entry): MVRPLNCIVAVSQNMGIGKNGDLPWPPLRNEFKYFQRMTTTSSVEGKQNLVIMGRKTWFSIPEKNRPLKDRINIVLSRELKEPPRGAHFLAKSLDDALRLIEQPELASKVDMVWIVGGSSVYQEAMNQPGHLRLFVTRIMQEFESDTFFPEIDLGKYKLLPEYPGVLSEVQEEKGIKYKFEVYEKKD

[3] = target: reduced folate carrier (Mus musculus); experiment: Binding affinity towards Dihydrofolate reductase derived from L1210 cells using [3H]- MTX as the radioligand
Dihydrofolate reductase [4] = target: T3, Dihydrofolate reductase; experiment: Concentration inhibiting Dihydrofolate reductase derived from L1210 cells; format: cell-based
[5] = Concentration inhibiting Glycinamide ribotide formyltransferase of Lactobacillus casei; set-up: species or system Lacticaseibacillus casei

Compound	IC50 (L1210) [nM]	IC50 (Thymidylate synthase) [µM]	further results
CC(Cc1ccc(C(=O)NC(CCC(=O)O)C(=O)O)cc1)c1cnc2nc(N)nc(N)c2n1 (configuration not stated)	0.24	> 100	IC50 (Dihydrofolate reductase [1]): 40 nM
Nc1nc(N)c2nc(CCc3ccc(C(=O)N[C@@H](CCC(=O)O)C(=O)O)cc3)cnc2n1	1.5	–	Ki (Dihydrofolate reductase [2]): 3.4 pM; Ki [3]: 1200 nM
CN(Cc1cnc2nc(N)nc(N)c2n1)c1ccc(C(=O)N[C@@H](CCC(=O)O)C(=O)O)cc1 [METHOTREXATE]	5	–	–
CCC(Cc1cnc2nc(N)nc(N)c2n1)c1ccc(C(=O)N[C@@H](CCC(=O)O)C(=O)O)cc1 (some centres not stated) [EDATREXATE]	0.65	–	–
CCC(Cc1ccc(C(=O)NC(CCC(=O)O)C(=O)O)cc1)c1cnc2nc(N)nc(N)c2n1 (configuration not stated)	4.7	> 100	Ki (Dihydrofolate reductase [4]): 5.5 pM; IC50 [5]: > 50 µM
